# Assay results from the RepoRT retention time repository (doi:10.1016/j.chroma.2015.03.063).
# Assay: Agilent ZORBAX Eclipse Plus C18, 100 × 2.1 mm, 1.8 µm, 25 °C, 0.3 mL/min, estimated dead time 0.73 min; A: water + 0.1% acetic acid; B: methanol; gradient (min/%B) 0/5 6/20 13/35 18/50 24/65 30/90 40/90
# Settings: stereoisomer not certain
row,SMILES,LC retention time [min]
1,COC(=O)C1=COC(OC2OC(CO)C(O)C(O)C2O)C2C(CO)=CCC12 (stereo not given),13.9
2,CC(O)C(N)C(=O)O (stereo not given),2.12
3,C[N+](C)(C)CCO,2.08
4,CC(C)CC(N)C(=O)O (stereo not given),5.02
5,NC(Cc1ccccc1)C(=O)O (stereo not given),7.22
6,C[n+]1cccc(C(=O)[O-])c1,2.21
7,O=c1cc[nH]c(=O)[nH]1,4.2
8,O=C(O)c1cccnc1,3.34
9,OCC1OC(OCC2OC(OC3(CO)OC(CO)C(O)C3O)C(O)C(O)C2O)C(O)C(O)C1O (stereo not given),2.54

# Now from value to molecule:
row,LC retention time [min],SMILES
1,8.99,O=C(C=Cc1ccc(O)c(O)c1)OC1CC(O)(C(=O)O)CC(O)C1O (stereo not given)
2,11.6,CC1OC(OCC2OC(Oc3c(-c4ccc(O)c(O)c4)oc4cc(O)cc(O)c4c3=O)C(O)C(O)C2O)C(O)C(O)C1O (stereo not given)
3,9.87,COc1cc(C(=O)O)cc(OC)c1O
4,9.7,NC(Cc1c[nH]c2ccccc12)C(=O)O (stereo not given)
5,2.8,C[N+](C)(C)CC(=O)[O-]
6,7.74,O=C(O)c1ccc(O)c(O)c1
7,23.6,COc1ccc(-c2coc3cc(O)ccc3c2=O)cc1O
8,21.6,COc1ccc(-c2coc3cc(OC4OC(CO)C(O)C(O)C4O)ccc3c2=O)cc1 (stereo not given)
9,18.2,O=c1cc(-c2ccc(O)cc2)oc2cc(OC3OC(CO)C(O)C(O)C3O)cc(O)c12 (stereo not given)
10,5.25,Nc1ncnc2c1ncn2C1OC(CO)C(O)C1O (stereo not given)
11,17.6,COc1ccc(-c2coc3cc(OC4OC(CO)C(O)C(O)C4O)ccc3c2=O)cc1O (stereo not given)

# Assay: RP, Thermo Scientific Accucore C18, 150 × 2.1 mm, 2.6 µm, 24 °C, 0.28 mL/min, estimated dead time 0.83 min; A: 90% water + 10% acetonitrile + 10 mM ammonium acetate; B: 20% water + 80% methanol + 10 mM ammonium acetate; gradient (min/%B) 0/0 2.5/0 7.5/30 12.5/30 15/40 20/100 27.5/100
# Settings: stereoisomer not certain
row,SMILES,LC retention time [min]
1,CC(Cc1ccc(O)cc1)NCC(O)c1cc(O)cc(O)c1 (stereo not given),3.13
2,CC(Cc1ccccc1)N(C)Cc1ccco1 (stereo not given),14.8
3,CC(C)=CCN1CCC2(C)c3cc(O)ccc3CC1C2C (stereo not given),9.19
4,CC1NCCOC1c1ccccc1 (stereo not given),4.89
5,COC12CCC3(CC1C(C)(O)C(C)(C)C)C1Cc4ccc(O)c5c4C3(CCN1CC1CC1)C2O5 (stereo not given),22.2
6,C1CCc2nnnn2CC1,2.93
7,COc1ccc2c3c1OC1C(=O)CCC4(O)C(C2)N(C)CCC314 (stereo not given),5.11
8,CCNC(C)C(=O)c1ccc(C)cc1 (stereo not given),6.99
9,COc1ccc2c3c1OC1C(O)C=CC4C(C2)N(C)CCC341 (stereo not given),4.48
10,CNC(C)Cc1ccccc1OC (stereo not given),6.54
11,CC(Cc1ccccc1)NCCn1cnc2c1c(=O)n(C)c(=O)n2C (stereo not given),8.9
12,c1ccc(CN2CCNCC2)cc1,4.45
13,C#CC1(O)CCC2C3C(C)CC4=C(CCC(=O)C4)C3CCC21C (stereo not given),18.6
14,CCCC(Cc1ccccc1)N1CCCC1 (stereo not given),9.51
15,CC(C)c1c(CN(C)C(C)Cc2ccccc2)n(C)n(-c2ccccc2)c1=O (stereo not given),21.3
16,CCOC(=O)C1(c2ccccc2)CCN(C)CC1,8.8
17,CC(C(=O)O)c1cccc(C(=O)c2ccccc2)c1 (stereo not given),8.05
18,CC12C=CC(=O)C=C1CCC1C2C(=O)CC2(C)C1CCC2(O)C(=O)CO (stereo not given),9.4
19,CC(C)(N)Cc1ccccc1,4.37
20,COc1cccc(C2(O)CCCCC2CN(C)C)c1 (stereo not given),7.44
21,CC12C=CC(=O)C=C1CCC1C2C(O)CC2(C)C1CCC2(O)C(=O)CO (stereo not given),9.34
22,CC(N)Cc1ccccc1 (stereo not given),3.77
23,CNC(C)C(=O)c1ccccc1 (stereo not given),2.99
24,CCC(=O)C(CC(C)N(C)C)(c1ccccc1)c1ccccc1 (stereo not given),16.5
25,Cc1ccccc1CC(C)N (stereo not given),6.42
26,CC(N)Cc1ccc2c(c1)OCO2 (stereo not given),4.23
27,CC(CN1CCOCC1)C(C(=O)N1CCCC1)(c1ccccc1)c1ccccc1 (stereo not given),19
28,CNC(C)C(O)c1ccccc1 (stereo not given),2.75

row,SMILES,LC retention time [min]
1,CCC1(O)CCC2C3CCC4=CC(=O)CCC4=C3C=CC21CC (stereo not given),18.8
2,C#CCN(C)C(C)Cc1ccccc1 (stereo not given),15.1
3,COC(=O)C1C(OC(=O)c2ccccc2)CC2CCC1N2C (stereo not given),8.59
4,CC1C(c2ccccc2)OCCN1C (stereo not given),8.08
5,CCCCCc1cc(O)c2c(c1)OC(C)(C)C1CCC(C(=O)O)=CC21 (stereo not given),18.9
6,CCNC1C2CCC(C2)C1c1ccccc1 (stereo not given),9.1
7,CC12CCC(=O)C=C1CCC1C2C(=O)CC2(C)C1CCC2(O)C(=O)CO (stereo not given),9.34
8,CC(Cc1ccccc1)NCCC#N (stereo not given),8.95
9,O=C1CC2OCC=C3CN4CCC56c7ccccc7N1C5C2C3CC46 (stereo not given),6.68
10,COc1ccc2c(c1)C13CCCCC1C(C2)N(C)CC3 (stereo not given),11
11,CC(N)C(=O)c1ccccc1 (stereo not given),8.59
12,CNC(C)CCC=C(C)C (stereo not given),7.13
13,CCCC(C(=O)c1ccc2c(c1)OCO2)N1CCCC1 (stereo not given),8.97
14,CC(Cc1ccccc1)N(C)Cc1ccccc1 (stereo not given),17.8
15,CNC(C)CC1CCCCC1 (stereo not given),8.35
16,CNC(C)C(=O)c1ccc2c(c1)OCO2 (stereo not given),3.44
17,CNC(C)Cc1ccc2c(c1)OCO2 (stereo not given),5.12
18,N=C1NC(=O)C(c2ccccc2)O1 (stereo not given),3.65
19,CC(C(O)c1ccccc1)N(C)C (stereo not given),3.27
20,C#CC1(O)CCC2C3CCC4=CC(=O)CCC4=C3C=CC21CC (stereo not given),17.5
21,CN(C)C(=O)Oc1cc(OC(=O)N(C)C)cc(C(O)CNC(C)(C)C)c1 (stereo not given),8.28
22,CNC(C)Cc1ccccc1 (stereo not given),4.66
23,CCCCCC(C)N (stereo not given),6.13
24,CNC(C)C(=O)c1ccc(C)cc1 (stereo not given),6.27
25,CN1C2CCC1C(C(=O)O)C(OC(=O)c1ccccc1)C2 (stereo not given),4.81
26,CC1(C)OC2CC3C4CCC5=CC(=O)C=CC5(C)C4C(O)CC3(C)C2(C(=O)CO)O1 (stereo not given),12.7
27,CC1CC2C(C(O)CC3(C)C2CCC3(O)C(=O)CO)C2(C)C=CC(=O)C=C12 (stereo not given),11

# Results, then the molecule that gave them:
row,LC retention time [min],SMILES
1,13,Cc1cccc(Nc2ccccc2C(=O)O)c1C
2,6.44,COc1cc(Cc2cnc(N)nc2N)cc(OC)c1OC
3,21.2,CCC(C(=O)OCCN1CCOC(c2ccccc2)C1C)c1ccccc1 (stereo not given)
4,8.15,CCN(CC)C(=O)Nc1ccc(OCC(O)CNC(C)(C)C)c(C(C)=O)c1 (stereo not given)
5,10.1,C=CCc1ccccc1OCC(O)CNC(C)C (stereo not given)
6,17.9,Cc1ccc(C)c(OCCCC(C)(C)C(=O)O)c1
7,5.49,CCN(CC)C(=O)c1cccnc1
8,8.57,C=CCOc1ccccc1OCC(O)CNC(C)C (stereo not given)
9,9.53,CC(=O)Oc1c(C)cc(OCC(O)CNC(C)C)c(C)c1C (stereo not given)
10,7.63,CC(C)(C)NCC(O)COc1cccc2c1CCCC2=O (stereo not given)
11,7.07,CCCC(=O)Nc1ccc(OCC(O)CNC(C)C)c(C(C)=O)c1 (stereo not given)
12,9.1,Cc1cc(C)cc(NC(=O)Cc2ccc(OC(C)(C)C(=O)O)cc2)c1
13,8.1,COC(=O)CCc1ccc(OCC(O)CNC(C)C)cc1 (stereo not given)
14,9.01,CC(=O)CC(c1ccccc1)c1c(O)c2ccccc2oc1=O (stereo not given)
15,9.86,CC(C)NCC(O)COc1cccc2ccccc12 (stereo not given)
16,5.43,Cc1cc(=O)n(-c2ccccc2)n1C
17,10.2,CC(C)NCC(O)COc1ccc(CCOCC2CC2)cc1 (stereo not given)
18,4.22,CC(C)(C)NCC(O)COc1cccc2c1CCC(=O)N2 (stereo not given)
19,9.66,NC(CC(O)COc1cccc2ccccc12)=NO (stereo not given)
20,9.25,CCCCNc1cc(C(=O)O)cc(S(N)(=O)=O)c1Oc1ccccc1

row,LC retention time [min],SMILES
1,4.97,CC(C)(C)NCC(O)COc1cccc2c1CC(O)C(O)C2 (stereo not given)
2,15.7,CC(=O)OCC(=O)C12N=C(C)OC1CC1C3CCC4=CC(=O)C=CC4(C)C3C(O)CC12C (stereo not given)
3,6.51,Nc1nc(N)c2nc(-c3ccccc3)c(N)nc2n1
4,8.07,CCN(CC)C(=O)c1ccc(O)c(OC)c1
5,12.2,CC(C)(C#N)c1cc(Cn2cncn2)cc(C(C)(C)C#N)c1
6,5.15,CC(C)NCC(O)COc1cccc2[nH]ccc12 (stereo not given)
7,7.05,CC(C)(C)NCC(O)COc1nsnc1N1CCOCC1 (stereo not given)
8,10.7,NC(=O)N1c2ccccc2C=Cc2ccccc21
9,21.2,CCC(=C(c1ccccc1)c1ccc(OCCN(C)C)cc1)c1ccccc1
10,8.86,CC(C)NCC(O)COc1ccc(COCCOC(C)C)cc1 (stereo not given)
11,8.74,CCCN(CCC)S(=O)(=O)c1ccc(C(=O)O)cc1
12,7.62,COc1ccc(CC(C)NCC(O)c2ccc(O)c(NC=O)c2)cc1.COc1ccc(CC(C)NCC(O)c2ccc(O)c(NC=O)c2)cc1.O=C(O)C=CC(=O)O (stereo not given)
13,7.33,COCCc1ccc(OCC(O)CNC(C)C)cc1 (stereo not given)
14,17,OCc1cc(C(O)CNCCCCCCOCCCCc2ccccc2)ccc1O (stereo not given)
15,17.2,CS(=O)(=O)Nc1ccc([N+](=O)[O-])cc1Oc1ccccc1
16,15.4,COc1ccccc1OCCNCC(O)COc1cccc2[nH]c3ccccc3c12 (stereo not given)
17,15.6,CNCCC=C1c2ccccc2CCc2ccccc21
18,17.2,CN(C)CCC=C1c2ccccc2CCc2ccccc21
19,17.2,COC(=O)C1=C(C)NC(C)=C(C(=O)OC)C1c1ccccc1[N+](=O)[O-]
20,9,CC(CCc1ccccc1)NCC(O)c1ccc(O)c(C(N)=O)c1 (stereo not given)
